# Reference: patent publication US5489580A, “Phospholipid compounds and use therefor” (University of Connecticut, priority 1992, dated 1996)
# Assays:
# Format in all cases: cell-based
# [1] = tested on: NAMALWA leukemic cell line; experiment: LDH release cytotoxicity assay, NAMALWA; conditions: 5×10^5 cells/mL, 10% fetal calf serum, incubation 2, 4, 8 and 24 hours, time of ID50 not given
# Method: (§1) The compounds of the present invention were tested for their cytotoxic effects upon various leukemic cell lines. The effectiveness of each of the compounds tested was measured through assessing the leakage of the cytosolic enzyme, lactic dehydrogenase (LDH), from the leukemia cells into the media following incubation with the compound.
# (§2) The LDH release assay used was a modified microtiter plate enzyme linked immunosorbent assay LDH release assay. Seven mg of each phospholipid compound to be tested was completely dissolved in separate 700 μL volumes of 100% ethanol. The ethanolic solutions were then diluted to form stock solutions by the addition of 70 mL RPMI complete medium until the concentration of phospholipid in each solution was lowered to about 100 μg/mL. An RPMI complete medium contains a RPMI 1640 medium, without red phenol, 20 mM Hepes buffer, 2 mM L-glutamine, 50 μM 2-mercaptoethanol and 20% of fetal calf serum. To form an ethanol control, a 350 μL aliquot of ethanol was added to a small glass bottle containing 35 mL of RPMI complete medium.
# (§3) Each stock solution was mixed by magnetic stirring bar at room temperature for one hour and then filtered through a 0.22 μm Millipore filter, where the filter was pre-rinsed with 0.6 mL of RPMI complete medium. The stock solutions were subsequently placed in a shaker in a cold room overnight and subsequently stored in small glass bottles wrapped with aluminum foil at 4° C.
# (§4) Each stock solution was shaken for 30 minutes at room temperature. Then each phospholipid stock solution was separately diluted, in small glass vials, with RPMI complete medium to form solutions with phospholipid concentrations of 80 μg, 40 μg, 20 μg and 10 μg.
# (§5) For each cell line, the leukemia cells were removed from the culture flask, put into a 50 mL conical tube, centrifuged at 500 rpm for 10 minutes and then washed once with fresh RPMI 1640 medium.
# (§6) Aliquots (0.4 mL) of each 100 μg, 80 μg, 40 μg, 20 μg and 10 μg phospholipid solution were added to small vials containing 0.4 mL of cell suspension to form test solutions with phospholipid concentrations of 50, 40, 20, 10 and 5 μg/mL; cell densities of 5×10^5 cells/mL; and 10% fetal calf serum in RPMI complete medium. For an ethanol control group, an aliquot of 0.4 mL of the ethanol control was mixed with 0.4 mL of cell suspension to form a control group with an ethanol concentration of 0.495% and a cell density of 5×10^5 cells/mL. For a negative control group, a 0.4 mL aliquot of RPMI complete medium was added to 0.4 mL of cell suspension to give a cell density of 5×10^5 cells/mL. For a positive control group, cell suspension was diluted with RPMI 1640 medium, which contained 10% fetal calf serum, 20 mM Hepes buffer, 2 mM L-glutamine and 2-mercaptoethanol and stored overnight at -70° C.
# (§7) Aliquots (0.2 mL) of each test solution and control group were added to flat bottomed Linbro microtiter plates, in triplicate, and incubated for 2, 4, 8 and 24 hours. Following incubation, the plates were centrifuged at 500 rpm for 5 minutes. Supernatant aliquots of 0.1 mL were then transferred to separate wells on an optic-clear, flat-bottomed microtiter plate. A volume of 0.1 mL of an LDH substrate mixture, containing 5.4×10^-2 M L(+)-lactate, 6.6×10^-4 MINT, provided by Sigma Chemical Company, 2.8×10^-4 M PMS, and 1.3×10^-3M NAD in a 0.2 M Tris buffer of pH 8.2, was added to each well. A Linbro-Titertek Company Lambda microtiter plate reader was used to monitor the absorbance at 490 nm.
# (§8) The cytotoxic effectiveness of each compound tested, as provided in Table I, is described in terms of the ID50 of the drug. The ID50 is the concentration of the compound tested that is required to produce a cytotoxicity that is 50% of the control's cytotoxicity.
# [2] = tested on: CEM leukemic cell line; experiment: LDH release cytotoxicity assay, CEM; conditions: 5×10^5 cells/mL, 10% fetal calf serum, incubation 2, 4, 8 and 24 hours, time of ID50 not given
# Method: as §1, §2, §3, §4, §5, §6, §7, §8
# [3] = tested on: HUT 78 leukemic cell line; experiment: LDH release cytotoxicity assay, HUT 78; conditions: Homo sapiens, HuT78, 5×10^5 cells/mL, 10% fetal calf serum, incubation 2, 4, 8 and 24 hours, time of ID50 not given
# Method: as §1, §2, §3, §4, §5, §6, §7, §8
# [4] = tested on: HL60 leukemic cell line; experiment: LDH release cytotoxicity assay, HL60; conditions: Homo sapiens, HL-60, 5×10^5 cells/mL, 10% fetal calf serum, incubation 2, 4, 8 and 24 hours, time of ID50 not given
# Method: as §1, §2, §3, §4, §5
# Aliquots (0.4 mL) of each 100 μg, 80 μg, 40 μg, 20 μg and 10 μg phospholipid solution were added to small vials containing 0.4 mL of cell suspension to form test solutions with phospholipid concentrations of 50, 40, 20, 10 and 5 μg/mL; cell densities of 5×10^5 cells/mL; and 10% fetal calf serum in RPMI complete medium. For an ethanol control group, an aliquot of 0.4 mL of the ethanol control was mixed with 0.4 mL of cell suspension to form a control group with an ethanol concentration of 0.495% and a cell density of 5×10^5 cells/mL. […]
# Aliquots (0.2 mL) of each test solution and control group were added to flat bottomed Linbro microtiter plates, in triplicate, and incubated for 2, 4, 8 and 24 hours. […] A Linbro-Titertek Company Lambda microtiter plate reader was used to monitor the absorbance at 490 nm. […]
SMILES,IC50 [1],IC50 [2],IC50 [3],IC50 [4]
CCCCCCCCCCCCCCCCCCOCC(COP(=O)([O-])OCC[N+]1(C)CCOCC1)OC (stereo not drawn) [2-O-Methyl-1-O-octadecylglycero-3-phospho-(β-(N-methylmorpholino))ethanol],11 µg/mL,3.6 µg/mL,6.6 µg/mL,–
"CCCCCCCCCCCCCCCCC[C@H]1CO[C@H](COP(=O)([O-])OCC[N+](C)(C)C)CO1 [(2S,5S)-(5-heptadecyl-1,4-dioxan-2-yl)methyloxyphosphocholine]",< 2 µg/mL,< 2 µg/mL,–,< 2 µg/mL
"CCCCCCCCCCCCCCCCCCOC[C@H](COP(=O)([O-])O[C@@H](C)C[N+](C)(C)C)OC [(2R,αS)-2-O-Methyl-1-O-octadecyl-sn-glycero-3-phospho-(α-methyl)choline]",21.5 µg/mL,4.5 µg/mL,15.2 µg/mL,–
"CCCCCCCCCCCCCCCCCCOC[C@H](COP(=O)([O-])OC[C@H](C)[N+](C)(C)C)OC [(2R,βS)-2-O-Methyl-1-O-octadecyl-sn-glycero-3-phospho-(β-methyl)choline]",12.8 µg/mL,2.85 µg/mL,6.6 µg/mL,–
"CCCCCCCCCCCCCCCCC[C@@H]1CO[C@H](COP(=O)([O-])OCC[N+](C)(C)C)CO1 [(2S,5R)-(5-heptadecyl-1,4-dioxan-2-yl)methyloxyphosphocholine]",4 µg/mL,4 µg/mL,–,4 µg/mL
CCCCCCCCCCCCCCCCCCOC[C@H](COP(=O)(O)O)OC [(R)-2-O-Methyl-1-O-octadecyl-sn-glycero-3-phosphoric acid],24 µg/mL,2.95 µg/mL,3 µg/mL,–
"CCCCCCCCCCCCCCCCCCOC[C@H](COP(=O)([O-])OC[C@@H](C)[N+](C)(C)C)OC [(2R,βR)-2-O-Methyl-1-O-octadecyl-sn-glycero-3-phospho-(β-methyl)choline]",13.5 µg/mL,3.3 µg/mL,11.2 µg/mL,–
"CCCCCCCCCCCCCCCCC[C@@H]1CO[C@@H](COP(=O)([O-])OCC[N+](C)(C)C)CO1 [(2R,5R)-(5-heptadecyl-1,4-dioxan-2-yl) methyloxyphosphocholine]",4 µg/mL,4 µg/mL,–,4 µg/mL
"CCCCCCCCCCCCCCCCCCOC[C@H](COP(=O)([O-])O[C@H](C)C[N+](C)(C)C)OC [(2R,αR)-2-O-Methyl-1-O-octadecyl-sn-glycero-3-phospho-(α-methyl)choline]",22 µg/mL,5.6 µg/mL,21 µg/mL,–
"CCCCCCCCCCCCCCCCC[C@H]1CO[C@@H](COP(=O)([O-])OCC[N+](C)(C)C)CO1 [(2R,5S)-(5-heptadecyl-1,4-dioxan-2-yl)methyloxyphosphocholine]",< 2 µg/mL,< 2 µg/mL,–,< 2 µg/mL
CCCCCCCCCCCCCCCCCCOCC(COP(=O)([O-])OCC[N+]1(C)CCCC1)OC (stereo not drawn) [2-O-Methyl-1-O-octadecylglycero-3-phospho-(β-(N-methylpyrrolidino))ethanol],17.5 µg/mL,3.4 µg/mL,13 µg/mL,–
